Measurements as given in US8173689B2 (Novartis AG, priority 2006, dated 2012).
Read-outs that look alike come from different tables or passages of the source.

Tests used:
[1] = biological target: T1, cytoplasmic domain of the human CSF-1R (Homo sapiens, UniProt P07333); test: In vitro kinase assay for colony stimulating factor-1 receptor (AlphaScreen); type: biochemical; details: tested at about 1 μM; for inhibition at 1 µM: read-out: CSF-1R percent inhibition
T1 construct: Recombinant protein corresponding to the cytoplasmic domain of the human CSF-1R; purchased Invitrogen Corporation, Carlsbad, Calif; PV3249
T1 sequence (P07333 539-972 limits assumed): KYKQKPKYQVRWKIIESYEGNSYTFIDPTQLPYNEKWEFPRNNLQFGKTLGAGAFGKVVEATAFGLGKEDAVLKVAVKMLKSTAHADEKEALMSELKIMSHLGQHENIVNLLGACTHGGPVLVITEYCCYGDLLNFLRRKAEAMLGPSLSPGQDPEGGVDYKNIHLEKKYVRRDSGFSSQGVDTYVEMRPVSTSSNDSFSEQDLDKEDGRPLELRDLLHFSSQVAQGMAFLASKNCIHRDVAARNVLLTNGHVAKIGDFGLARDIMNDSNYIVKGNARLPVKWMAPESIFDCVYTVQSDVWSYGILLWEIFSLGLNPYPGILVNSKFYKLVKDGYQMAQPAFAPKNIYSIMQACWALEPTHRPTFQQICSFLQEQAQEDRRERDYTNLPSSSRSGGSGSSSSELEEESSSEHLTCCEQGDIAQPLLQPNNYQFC
Description: The kinase activity of various protein tyrosine kinases can be measured by providing ATP and a suitable peptide or protein tyrosine-containing substrate, and assaying the transfer of phosphate moiety to the tyrosine residue. Recombinant protein corresponding to the cytoplasmic domain of the human CSF-1R was purchased from Invitrogen Corporation, Carlsbad, Calif. U.S.A. (#PV3249). For each assay, test compounds were serially diluted, starting at 25 μM with 3 fold dilutions, in DMSO in 384 well plates then mixed with an appropriate kinase reaction buffer consisting of 50 mM Hepes, 5 mM MgCl2, 10 mM MnCl2, 0.1% BSA, pH 7.5, 1.0 mM dithiothreitol, 0.01% Tween 80 plus 1 μM ATP. […] Added to the stopped reaction mix was 30 μL of PT66 Alphascreen beads (Perkin Elmer, Boston, Mass., U.S.A.). The reaction was incubated overnight and read on the Envision (Perkin Elmer). Phosphorylated peptide product was measured with the AlphaScreen system (Perkin Elmer) using acceptor beads coated with anti-phosphotyrosine antibody PT66 and donor beads coated with streptavidin that emit a fluorescent signal at the 520-620 nm emission wave length if in close proximity.
CSF-1R kinase was added at final concentration of 4 nM.

kinase domain of cKIT = biological target: T2, kinase domain of cKIT (Homo sapiens, UniProt P10721); test: Inhibition of cKIT kinase signaling in an in vitro biochemical assay (alphascreen); details: tested at about 1 μM; for inhibition at 1 µM: read-out: cKit percent inhibition
T2 construct: The kinase domain of cKIT was assayed in 50 mM Hepes; purchased Upstate 14-559
Description: (§1) The IC50 values for the inhibition of RTKs were determined in the alphascreen format measuring the inhibition by compound of phosphate transfer to a substrate by the respective enzyme. Briefly, the respective RTK domain purchased as human recombinant protein (cKIT Upstate #14-559, PDGFRb Invitrogen #P3082) were incubated with serial dilutions of compound in the presence of substrate and ATP concentrations within 3 times the Km of the enzyme.
(§2) Alphascreen PY20 beads were added to the stopped cKIT reactions and PY20 Ab/Protein A Alphascreen beads were added to the PDGFRβ stopped reactions. Both reactions were incubated overnight and read on the Alphascreen reader.

kinase domain of PDGFRβ = biological target: T3, kinase domain of PDGFRβ (Homo sapiens, UniProt P09619); test: Inhibition of PDGFRb kinase signaling in an in vitro biochemical assay (alphascreen); details: tested at about 1 μM; for inhibition at 1 µM: read-out: PDGFRβ percent inhibition
T3 construct: The kinase domain of PDGFRβ was assayed in 50 mM Hepes; purchased Invitrogen P3082
Description: as §1, §2

T3 sequence (P09619 600-962 limits assumed): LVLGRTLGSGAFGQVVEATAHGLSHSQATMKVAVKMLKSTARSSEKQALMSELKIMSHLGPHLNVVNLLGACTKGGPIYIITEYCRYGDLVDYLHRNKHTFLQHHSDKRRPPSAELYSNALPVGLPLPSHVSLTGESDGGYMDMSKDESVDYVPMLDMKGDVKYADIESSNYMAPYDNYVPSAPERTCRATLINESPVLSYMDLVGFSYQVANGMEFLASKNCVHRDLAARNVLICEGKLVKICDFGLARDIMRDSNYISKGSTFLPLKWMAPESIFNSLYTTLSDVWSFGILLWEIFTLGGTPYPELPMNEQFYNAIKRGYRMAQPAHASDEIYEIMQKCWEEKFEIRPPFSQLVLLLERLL
T2 sequence (P10721 589-937 limits assumed): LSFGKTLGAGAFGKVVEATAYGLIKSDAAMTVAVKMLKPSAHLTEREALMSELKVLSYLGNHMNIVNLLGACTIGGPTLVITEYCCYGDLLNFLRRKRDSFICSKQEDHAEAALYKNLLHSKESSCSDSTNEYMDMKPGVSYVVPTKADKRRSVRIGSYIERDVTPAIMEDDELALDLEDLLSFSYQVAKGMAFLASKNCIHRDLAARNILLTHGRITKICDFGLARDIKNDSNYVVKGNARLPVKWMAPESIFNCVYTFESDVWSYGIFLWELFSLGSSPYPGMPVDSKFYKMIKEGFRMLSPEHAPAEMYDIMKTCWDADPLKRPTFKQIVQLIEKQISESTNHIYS

Row | Molecule | inhibition at 1 µM [1] | inhibition at 1 µM (kinase domain of cKIT) | inhibition at 1 µM (kinase domain of PDGFRβ) | also measured
1 | CNC(=O)c1cc(Oc2ccc3nc(N[C@H]4CC[C@@H](NC(=O)[C@@H]5CCCO5)CC4)sc3c2)ccn1 [Compound 136] | – | – | – | inhibition at 1 µM ([1]; compounds of Table 3): 86%; inhibition at 1 µM (kinase domain of cKIT; compounds of Table 3): 3%; inhibition at 1 µM (kinase domain of PDGFRβ; compounds of Table 3): 0%
2 | O[C@@H]1CCCC[C@H]1Nc1nc2ccc(Oc3ccnc(C4CC4)c3)cc2s1 [Cmpd 169, (1R,2R)-2-(6-(2-cyclopropylpyridin-4-yloxy)benzo[d]thiazol-2-ylamino)cyclohexanol] | – | – | – | inhibition at 1 µM ([1]; compounds of Table 3): 75%; inhibition at 1 µM (kinase domain of cKIT; compounds of Table 3): 12%; inhibition at 1 µM (kinase domain of PDGFRβ; compounds of Table 3): 0%
3 | CNC(=O)c1cc(Oc2ccc3nc(NC4CCN(Cc5ccccc5)CC4)oc3c2)ccn1 [Compound 103, 4-[2-(1-Benzyl-piperidin-4-ylamino)-benzooxazol-6-yloxy]-pyridine-2-carboxylic acid methylamide] | 60% | 8% | 14% | –
4 | CNC(=O)c1cc(Oc2ccc3nc(N[C@H]4CCCNC4)sc3c2)ccn1 [Example 332, (S)-N-methyl-4-(2-(piperidin-3-ylamino)benzo[d]thiazol-6-yloxy)picolinamide] | 48% | 38% | 10% | –
5 | CNC(=O)c1cc(Oc2ccc3nc(N[C@@H]4CCCN(C(C)=O)C4)sc3c2)ccn1 [Example 302, (R)-4-(2-(1-acetylpiperidin-3-ylamino)benzo[d]thiazol-6-yloxy)-N-methylpicolinamide] | 68% | 20% | 0% | –
6 | CNC(=O)c1cc(Oc2cc3sc(NCC4CCCCC4)nc3cc2F)ccn1 [Example 379, 4-(2-(cyclohexylmethylamino)-5-fluorobenzo[d]thiazol-6-yloxy)-N-methylpicolinamide] | 77% | 16% | 36% | –
7 | CNC(=O)c1cc(Oc2ccc3nc(NCc4cccnc4)oc3c2)ccn1 [Compound 59, 4-{2-[(Pyridin-3-ylmethyl)-amino]-benzooxazol-6-yloxy}-pyridine-2-carboxylic acid methylamide] | 97% | 21% | 0% | –
8 | Cn1cc(-c2cc(Oc3ccc4nc(NC5CCCCCC5)sc4c3)ccn2)cn1 [Example 364, N-cycloheptyl-6-(2-(1-methyl-1H-pyrazol-4-yl)pyridin-4-yloxy)benzo[d]thiazol-2-amine] | 100% | 100% | 100% | –
9 | CNC(=O)c1cc(Oc2ccc3nc(Nc4ccc5c(c4)OCO5)oc3c2)ccn1 [Compound 95, 4-[2-(Benzo[1,3]dioxol-5-yl-amino)-benzooxazol-6-yloxy]-pyridine-2-carboxylic acid methylamide] | 98% | 40% | 8% | –
10 | CNC(=O)c1cc(Oc2ccc3nc(NC4CCN(c5ccccc5)CC4)oc3c2)ccn1 [Compound 107, 4-[2-(1-Phenyl-piperidin-4-ylamino)-benzooxazol-6-yloxy]-pyridine-2-carboxylic acid methylamide] | 67% | 8% | 0% | –
11 | CNC(=O)c1cc(Oc2ccc3nc(NC(C)(C)C)oc3c2)ccn1 [Compound 100, 4-(2-tert-Butylamino-benzo-oxazol-6-yloxy)-pyridine-2-carboxylic acid methylamide] | 99% | 10% | 9% | –
12 | Cn1cc(-c2cc(Oc3ccc4nc(NCCC5CCOCC5)sc4c3)ccn2)cn1 [Example 361, 6-(2-(1-methyl-1H-pyrazol-4-yl)pyridin-4-yloxy)-N-(2-(tetrahydro-2H-pyran-4-yl)ethyl)benzo[d]thiazol-2-amine] | 100% | 100% | 75% | –
13 | CNC(=O)c1cc(Oc2ccc3nc(N(C)Cc4ccccc4)oc3c2)ccn1 [Compound 106, 4-[2-(Benzyl-methyl-amino)-benzooxazol-6-yloxy]-pyridine-2-carboxylic acid methylamide] | 99% | 2% | 0% | –
14 | CNC(=O)c1cc(Oc2ccc3nc(N[C@H]4CCCC[C@H]4NC(=O)[C@@H]4CCCN4C)sc3c2)ccn1 [Example 313, N-methyl-4-(2-((1S,2R)-2-((S)-1-methylpyrrolidine-2-carboxamido)cyclohexylamino)benzo[d]thiazol-6-yloxy)picolinamide] | 52% | 23% | 2% | –
15 | N#Cc1cc(Oc2ccc3nc(NCC4CCCCC4)oc3c2)ccn1 [Compound 82, 4-[2-(Cyclohexylmethyl-amino)-benzooxazol-6-yloxy]-pyridine-2-carbonitrile] | 46% | 9% | 0% | –
16 | CNC(=O)c1cc(Oc2ccc3nc(N[C@H](C(=O)OC)c4ccccc4)oc3c2)ccn1 [Compound 55, (S)-[6-(2-Methylcarbamoyl-pyridin-4-yloxy)-benzooxazol-2-ylamino]-phenyl-acetic acid methyl ester] | 97% | 21% | 11% | –
17 | CNC(=O)c1cc(Oc2ccc3nc(N[C@@H]4CCCC[C@H]4NC(=O)C(C)C)sc3c2)ccn1 [Example 327, 4-(2-((1R,2R)-2-isobutyramidocyclohexyl-amino)benzo[d]thiazol-6-yloxy)-N-methylpicolinamide] | 47% | 6% | 0% | –
18 | CNC(=O)c1cc(Oc2ccc3nc(NC(=O)c4cccc5c4OCCO5)oc3c2)ccn1 [Compound 110, 4-{2-[(2,3-Dihydro-benzo-[1,4]dioxine-5-carbonyl)-amino]-benzooxazol-6-yloxy}-pyridine-2-carboxylic acid methylamide] | 85% | 16% | 8% | –
19 | 4-(2-Cyclobutylamino- benzooxazol-6-yloxy)- pyridine-2-carboxylic acid methylamide [Compound 22] | – | – | – | CSF-1R percent inhibition ([1]; compounds of Table 4): 100%; cKit percent inhibition (kinase domain of cKIT; compounds of Table 4): 89%; PDGFRβ percent inhibition (kinase domain of PDGFRβ; compounds of Table 4): 90%
20 | CNC(=O)c1cc(Oc2ccc3nc(N[C@H]4CCCC[C@H]4NC(=O)C(C)C)sc3c2)ccn1 [Example 310, 4-(2-((1S,2R)-2-isobutyramidocyclohexyl-amino)benzo[d]thiazol-6-yloxy)-N-methylpicolinamide] | 15% | 13% | 13% | –
21 | CNC(=O)c1cc(Oc2ccc3nc(N[C@H](CO)c4ccccc4)oc3c2)ccn1 [Compound 56, 4-[2-((S)-2-Hydroxy-1-phenyl-ethylamino)-benzooxazol-6-yloxy]-pyridine-2-carboxylic acid methylamide] | 66% | 55% | 0% | –
22 | CNC(=O)c1cc(Oc2ccc3nc(NCC4CCCO4)oc3c2)ccn1 (stereo not drawn) [Compound 102, 4-{2-[(Tetrahydro-furan-2-ylmethyl)-amino]-benzooxazol-6-yloxy}-pyridine-2-carboxylic acid methylamide] | 83% | 14% | 0% | –
23 | CNC(=O)c1cc(Oc2ccc3nc(NC[C@@H](C)O)sc3c2)ccn1 [Compound 99] | – | – | – | inhibition at 1 µM ([1]; compounds of Table 3): 86%; inhibition at 1 µM (kinase domain of cKIT; compounds of Table 3): 0%; inhibition at 1 µM (kinase domain of PDGFRβ; compounds of Table 3): 0%
24 | CNC(=O)c1cc(Oc2ccc3nc(NCC(C)C)oc3c2)ccn1 [Compound 99, 4-(2-Isobutylamino-benzooxazol-6-yloxy)-pyridine-2-carboxylic acid methylamide] | 63% | 12% | 9% | –
